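Test compounds were applied to cells in 96-well plates for 48 hours at 5 doses. The concentration for 50% growth inhibition is given as GI50.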 The source made the active and inactive calls. Rule as the data show it: active = GI50 up to about 1.1 µM and inactive = higher.
Assays:
Test in all cases: NCI anticancer screen, dose series, 48 h
T47D = tested on: T47D
OVCAR-3 = tested on: OVCAR-3
Malme-3M = tested on: Malme-3M
SF-539 = tested on: SF-539
SK-MEL-5 = tested on: SK-MEL-5
HOP-62 = tested on: HOP-62
NCI-H522 = tested on: NCI-H522
HT-29 = tested on: HT-29
COLO 205 = tested on: COLO 205
SN12C = tested on: SN12C
NCI/ADR-RES = tested on: NCI/ADR-RES
MDA-MB-231 = tested on: MDA-MB-231
SK-MEL-28 = tested on: SK-MEL-28
U-251 = tested on: U-251
MDA-N = tested on: MDA-N
HCC 2998 = tested on: HCC 2998
A549 = tested on: A549
HL-60 = tested on: HL-60
DU-145 = tested on: DU-145
K562 = tested on: K562
M14 = tested on: M14
PC-3 = tested on: PC-3
SNB-19 = tested on: SNB-19
UO-31 = tested on: UO-31
UACC-257 = tested on: UACC-257
TK-10 = tested on: TK-10
OVCAR-5 = tested on: OVCAR-5
SK-MEL-2 = tested on: SK-MEL-2
NCI-H23 = tested on: NCI-H23
SR = tested on: SR
BT-549 = tested on: BT-549
HCT-15 = tested on: HCT-15
NCI-H226 = tested on: NCI-H226
ACHN = tested on: ACHN
IGROV-1 = tested on: IGROV-1
HOP-92 = tested on: HOP-92
A498 = tested on: A498
EKVX = tested on: EKVX
SF-268 = tested on: SF-268
UACC-62 = tested on: UACC-62
OVCAR-4 = tested on: OVCAR-4
Hs-578T = tested on: Hs-578T
CCRF-CEM = tested on: CCRF-CEM
OVCAR-8 = tested on: OVCAR-8
KM12 = tested on: KM12
CAKI-1 = tested on: CAKI-1
MOLT-4 = tested on: MOLT-4
SW-620 = tested on: SW-620
RXF 393 = tested on: RXF 393
MCF7 = tested on: MCF7
LOX IMVI = tested on: LOX IMVI
HCT-116 = tested on: HCT-116
SK-OV-3 = tested on: SK-OV-3
SF-295 = tested on: SF-295
MDA-MB-435 = tested on: MDA-MB-435
SNB-75 = tested on: SNB-75
786-0 = tested on: 786-0
NCI-H460 = tested on: NCI-H460
RPMI-8226 = tested on: RPMI-8226

Measured: GI50

Cc1cccc2c(N)c3cccc(C(=O)NCC[N+](C)(C)Cc4sccc4[N+](=O)[O-])c3nc12
active: SN12C 0.332 µM | A549 491 nM | SR 398 nM | Hs-578T 1.11 µM | MOLT-4 871 nM
inactive: T47D 36.6 µM | OVCAR-3 19.5 µM | Malme-3M 10.4 µM | SF-539 2.83 µM | SK-MEL-5 5.21 µM | HOP-62 2.6 µM | NCI-H522 2.64 µM | HT-29 3.21 µM | COLO 205 13.3 µM | NCI/ADR-RES 51.4 µM | MDA-MB-231 12 µM | SK-MEL-28 37.3 µM | U-251 6.47 µM | MDA-N 19.6 µM | HCC 2998 7.69 µM | HL-60 > 100 µM | DU-145 23.8 µM | K562 3.64 µM | M14 13.8 µM | PC-3 11.9 µM | SNB-19 6.59 µM | UO-31 20.5 µM | UACC-257 26.9 µM | TK-10 25.9 µM | OVCAR-5 5.37 µM | SK-MEL-2 72.9 µM | NCI-H23 3.94 µM | BT-549 22 µM | NCI-H226 6.18 µM | ACHN 3.78 µM | IGROV-1 2.71 µM | HOP-92 34.5 µM | A498 27 µM | EKVX 18.6 µM | SF-268 19 µM | UACC-62 13.6 µM | OVCAR-4 12.3 µM | CCRF-CEM > 100 µM | OVCAR-8 9.84 µM | KM12 9.68 µM | CAKI-1 2.55 µM | SW-620 5.86 µM | RXF 393 12.9 µM | MCF7 2.04 µM | LOX IMVI 13.5 µM | HCT-116 12.1 µM | SK-OV-3 10.8 µM | SF-295 2.64 µM | MDA-MB-435 40.6 µM | SNB-75 7.28 µM | 786-0 5.56 µM
6.18 µM: HCT-15

C/C(=N\NC(=S)N1CCN(c2ccccn2)CC1)c1cccc(C)n1
inactive: Malme-3M 2.59 µM | SF-539 1.27 µM | SK-MEL-5 1.53 µM | HOP-62 6.31 µM | SN12C 7.98 µM | SK-MEL-28 7.1 µM | MDA-N 3.14 µM | HCC 2998 11.9 µM | A549 3480 nM | DU-145 2.85 µM | SNB-19 7.26 µM | UO-31 9.14 µM | TK-10 7.78 µM | OVCAR-5 4.03 µM | SK-MEL-2 2.15 µM | NCI-H23 5.58 µM | SR 1440 nM | BT-549 5.26 µM | NCI-H226 2.06 µM | ACHN 3 µM | HOP-92 3.81 µM | A498 2.75 µM | SF-268 1.51 µM | UACC-62 2.23 µM | Hs-578T 12.6 µM | KM12 3.1 µM | RXF 393 1.32 µM | LOX IMVI 2.15 µM | SK-OV-3 8.65 µM | SF-295 2.9 µM | MDA-MB-435 3.61 µM | SNB-75 3.84 µM | 786-0 1.9 µM
active: T47D 0.528 µM | OVCAR-3 < 0.01 µM | NCI-H522 0.0421 µM | HT-29 < 0.01 µM | COLO 205 < 0.01 µM | NCI/ADR-RES < 0.01 µM | MDA-MB-231 < 0.01 µM | U-251 < 0.01 µM | NCI-H460 1.03 µM | RPMI-8226 < 10 nM | HL-60 0.0115 µM | K562 0.585 µM | M14 0.261 µM | PC-3 < 0.01 µM | IGROV-1 < 0.01 µM | CCRF-CEM < 0.01 µM | MOLT-4 < 10 nM | SW-620 < 0.01 µM | MCF7 < 0.01 µM | HCT-116 < 0.01 µM
< 0.01 µM: HCT-15

Source: ChEMBL document CHEMBL1201862, “PubChem BioAssay data set” (2004)
